Patent US10519177B2, “Heterocyclic compounds and uses thereof” (Plexxikon Inc., priority 2013, dated 2019)
Like-named read-outs stand apart in the source and are kept apart here.

Experiments:
[1] = test system: bromodomain; assay: at least one of the bromodomain cell assays of Example 57; assay type: cell-based; settings: at least one of the bromodomain cell assays described in Example 57; read-out: IC50 in at least one of the bromodomain cell assays
[2] = test system: MV-4-11 cells; assay: Oncology cell growth assay MV-4-11 (CellTiter Glo); assay type: cell-based
Outline: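 Growth read by CellTiter Glo luminescence after 72 h compound treatment of MLL-AF4-bearing MV-4-11 cells (3000/well). Titration: 8 points, 1:3 steps, maximum 10 μM, 0.2% DMSO final. Data normalized to DMSO wells, four-parameter fit gives pIC50.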

[3] = molecular target: BRD4-BD1 (44-164) (Homo sapiens (Human), UniProt O60885); assay: Alphascreen binding assay BRD4-BD1; settings: BRD4(1) H4; read-out: Biochemical activity (IC50 μM) BRD4(1) H4
Outline: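 AlphaScreen signal (nickel acceptor, streptavidin donor beads, 7.5 µg/ml each, read 30 min after addition) reports displacement of biotin-H4 K5/K8/K12/K16-acetyl peptide from His-BRD4 BD1 (44-164) or tandem BD12 (1-477).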

[4] = molecular target: BRD4-BD12 (1-477) (Homo sapiens (Human), UniProt O60885); assay: Alphascreen binding assay BRD4-BD12; settings: BRD4(1 2) H4; read-out: Biochemical activity (IC50 μM) BRD4(1 2) H4
Outline: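 In this competition format, compounds displace a biotinylated tetra-acetyl H4 peptide from E. coli-expressed human BRD4 bromodomain constructs captured on nickel chelate beads. The reaction runs at pH 7.5 with 2 mM DTT and detergent for 1 h at room temperature before a 30 min bead step.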

[5] = Homo sapiens, MV4-11, 72 h; read-out: Cell activity (IC50 μM) MV-4-11 3d-Growth

| Molecule | IC50 [1] [nM] | IC50 [2, 5] [µM] | IC50 [3] [µM] | IC50 [4] [µM] | IC50 ([2]; Homo sapiens, MV4-11, 72 h, read-out: Cell activity (IC50 μM) MV-4-11 3d-Growth) [µM] | IC50 ([2]; MV-4-11 3d-Growth; read-out: Cell activity (IC50 μM) MV-4-11 3d-Growth) [µM] |
| --- | --- | --- | --- | --- | --- | --- |
| Oc1ccc(-c2cnc3ccn(CC4CCC(F)(F)CC4)c3c2)cn1 [P-0284, 5-[1-[(4,4-difluorocyclohexyl)methyl]pyrrolo[3,2-b]pyridin-6-yl]pyridin-2-ol] | < 10000 | 1 to 10 | < 1 | 1 to 10 | – | – |
| Cc1noc(C)c1-c1cnc2c(Br)cn(C(CC#N)C3CCCC3)c2c1 (centres unmarked) [P-0280, 3-[3-bromo-6-(3,5-dimethylisoxazol-4-yl)pyrrolo[3,2-b]pyridin-1-yl]-3-cyclopentyl-propanenitrile] | < 10000 | < 1 | < 1 | < 1 | – | – |
| Cc1noc(C)c1-c1cnc2c(Cl)cn(CC3CCC(F)(F)CC3)c2c1 [P-0306, 4-[3-chloro-1-[(4,4-difIuorocyclohexyl)methyl]pyrrolo[3,2-b]pyridin-6-yl]-3,5-dimethyl-isoxazole] | < 10000 | < 1 | < 1 | < 1 | – | – |
| Cc1noc(C)c1-c1cnc2c(I)cn(Cc3ccccc3)c2c1 [P-0318, 4-(1-benzyl-3-iodo-pyrrolo[3,2-b]pyridin-6-yl)-3,5-dimethyl-isoxazole] | < 10000 | < 1 | < 1 | < 1 | – | – |
| Cc1noc(C)c1-c1cnc2c(-c3cnn(CCN4CCOCC4)c3)cn(CC3CCC(F)(F)CC3)c2c1 [P-0296, 4-[2-[4-[1-[(4,4-difluorocyclohexyl)methyl]-6-(3,5-dimethylisoxazol-4-yl)pyrrolo[3,2-b]pyridin-3-yl]pyrazol-1-yl]ethyl]morpholine] | < 10000 | < 1 | < 1 | < 1 | – | – |
| Cc1noc(C)c1-c1cnc2c(c1)c(C(O)C1CCC(F)(F)CC1)cn2C (centres unmarked) [P-0101, (4,4-difluorocyclohexyl)-[5-(3,5-dimethylisoxazol-4-yl)-1-methyl-pyrrolo[2,3-b]pyridin-3-yl]methanol] | – | – | < 1 | – | < 1 | – |
| Cc1noc(C)c1-c1cnc2c(c1)c(CC1CCN(C(=O)Nc3ccccc3)CC1)cn2C [P-0114, 4-[[5-(3,5-dimethylisoxazol-4-yl)-1-methyl-pyrrolo[2,3-b]pyridin-3-yl]methyl]-N-phenyl-piperidine-1-carboxamide] | < 10000 | < 1 | < 1 | – | – | – |
| 1-(benzenesulfonyl)-5-(3,5-dimethylisoxazol-4-yl)pyrrolo[2,3-b]pyridine-3-carboxylic acid [P-0169] | < 10000 | – | < 1 | – | – | – |
| [6-(3,5-dimethylisoxazol-4-yl)-1H-pyrrolo[3,2-b]pyridin-3-yl]-tetrahydrothiopyran-4-yl-methanone [P-0091] | < 10000 | – | < 1 | – | – | 1 to 10 |
| CCS(=O)(=O)N1CCC(Cc2cn(C)c3ncc(-c4c(C)noc4C)cc23)CC1 [P-0116, 4-[3-[(1-ethylsulfonyl-4-piperidyl)methyl]-1-methyl-pyrrolo[2,3-b]pyridin-5-yl]-3,5-dimethyl-isoxazole] | < 10000 | 1 to 10 | < 1 | – | – | – |
| Cc1noc(C)c1-c1cnc2c(c1)c(CC1CCN(S(=O)(=O)C3CCCC3)CC1)cn2C [P-0119, 4-[3-[(1-cyclopentylsulfonyl-4-piperidyl)methyl]-1-methyl-pyrrolo[2,3-b]pyridin-5-yl]-3,5-dimethyl-isoxazole] | < 10000 | 1 to 10 | 1 to 10 | – | – | – |
| Cc1noc(C)c1-c1cnc2c(-c3cnn(CC(F)(F)F)c3)cn(C(C)c3ccccc3)c2c1 (centres unmarked) [P-0202, 3,5-dimethyl-4-[1-(1-phenyl-ethyl)-3-[1-(2,2,2-trifluoro-ethyl)pyrazol-4-yl]pyrrolo[3,2-b]pyridin-6-yl]isoxazole] | < 10000 | < 1 | < 1 | – | – | – |
| Cc1n[nH]cc1-c1cnc2ccn(CC3CCC(F)(F)CC3)c2c1 [P-0292, l-[(4,4-difluorocyclohexyl)methyl]-6-(3-methyl-1H-pyrazol-4-yl)pyrrolo[3,2-b]pyridine] | < 10000 | 1 to 10 | 10 to 200 | – | – | – |
| Cc1noc(C)c1-c1cnc2[nH]cc(Cc3ccccc3OC(F)F)c2c1 [P-0047, 4-[3-[[2-(difluoro-methoxy)phenyl]methyl]-1H-pyrrolo[2,3-b]pyridin-5-yl]-3,5-dimethyl-isoxazole] | – | – | < 1 | – | – | – |
| Cc1noc(C)c1-c1cnc2c(-c3cnn(C)c3)cn([C@@H](C)c3ccccc3)c2c1 [P-0222, 3,5-dimethyl-4-[3-(1-methylpyrazol-4-yl)-1-[(1S)-1-phenylethyl]pyrrolo[3,2-b]pyridin-6-yl]isoxazole] | – | – | < 1 | – | – | – |
| Cc1noc(C)c1-c1cnc2c(-c3cnn(C)c3)cn(C(C)c3ccccn3)c2c1 (centres unmarked) [P-0217, 3,5-dimethyl-4-[3-(1-methylpyrazol-4-yl)-1-[1-(2-pyridyl)ethyl]pyrrolo[3,2-b]pyridin-6-yl]isoxazole] | < 10000 | < 1 | < 1 | – | – | – |
| Cc1noc(C)c1-c1cnc2c(c1)c(C(O)C1CCSCC1)cn2S(=O)(=O)c1ccccc1 (centres unmarked) [P-0090, [1-(benzenesulfonyl)-5-(3,5-dimethylisoxazol-4-yl)pyrrolo[2,3-b]pyridin-3-yl]-tetrahydrothiopyran-4-yl-methanol] | – | – | < 1 | – | – | – |
| Cc1noc(C)c1-c1cnc2c(C#CCO)cn(S(=O)(=O)c3ccccc3)c2c1 [P-0155, 3-[1-(benzenesulfonyl)-6-(3,5-dimethylisoxazol-4-yl)pyrrolo[3,2-b]pyridin-3-yl]prop-2-yn-1-ol] | – | – | < 1 | – | – | – |
| Cc1nn(C)cc1-c1cn(C(C)c2ccccc2)c2cc(-c3c(C)noc3C)cnc12 (centres unmarked) [P-0205, 4-[3-(1,3-dimethylpyrazol-4-yl)-1-(1-phenylethyl)pyrrolo[3,2-b]pyridin-6-yl]-3,5-dimethyl-isoxazole] | – | – | < 1 | – | – | – |
| Cc1noc(C)c1-c1cnc2c(c1)c(CC1CCN(C(=O)C(F)(F)F)CC1)cn2C [P-0106, 1-[4-[[5-(3,5-dimethylisoxazol-4-yl)-1-methyl-pyrrolo[2,3-b]pyridin-3-yl]methyl]-1-piperidyl]-2,2,2-trifluoro-ethanone] | – | – | < 1 | – | – | – |
| Cc1noc(C)c1-c1cnc2c(-c3cnn(C(F)F)c3)cn(S(=O)(=O)c3ccccc3F)c2c1 [P-0132, 4-[3-[1-(difluoromethyl)pyrazol-4-yl]-1-(2-fluorophenyl)sulfonyl-pyrrolo[3,2-b]pyridin-6-yl]-3,5-dimethyl-isoxazole] | – | – | < 1 | – | – | – |
| CCC(c1cn(C)c2ncc(-c3c(C)noc3C)cc12)C1CCC(F)(F)CC1 (centres unmarked) [P-0118, 4-[3-[1-(4,4-difluorocyclohexyl)propyl]-1-methyl-pyrrolo[2,3-b]pyridin-5-yl]-3,5-dimethyl-isoxazole] | – | – | < 1 | – | – | – |
| Cc1noc(C)c1-c1cnc2c(-c3cnn(C(F)F)c3)cn(S(=O)(=O)C3CCC3)c2c1 [P-0134, 4-[1-cyclobutyl-sulfonyl-3-[1-(difluoro-methyl)pyrazol-4-yl]pyrrolo[3,2-b]pyridin-6-yl]-3,5-dimethyl-isoxazole] | – | – | < 1 | – | – | – |
| COc1ncc(-c2cn(S(=O)(=O)c3ccccc3)c3cc(-c4c(C)noc4C)cnc23)cn1 [P-0104, 4-[1-(benzenesulfonyl)-3-(2-methoxypyrimidin-5-yl)pyrrolo[3,2-b]pyridin-6-yl]-3,5-dimethyl-isoxazole] | – | – | < 1 | – | – | – |
| Cc1noc(C)c1-c1cnc2c(-c3cnn(C)c3)cn(Cc3ccccc3OC(F)(F)F)c2c1 [P-0194, 3,5-dimethyl-4-[3-(1-methylpyrazol-4-yl)-1-[[2-(trifluoromethoxy)phenyl]methyl]pyrrolo[3,2-b]pyridin-6-yl]isoxazole] | – | – | < 1 | – | – | – |
